{"source": "patent US12220442B2", "about": "“Antiepileptic toxin Martentoxin and use thereof” (Shanghai Institute of Organic Chemistry, Chinese Academy of …, priority 2018, dated 2025)", "key": {"[1]": {"test_system": "rat PTZ convulsion model", "experiment": "Recurrent convulsive behavior of PTZ in rat", "format": "in vivo", "method": "Adult male SD rats were placed in a transparent glass box of 40×30×50 cm to observe the convulsive reaction after administration. Before injection, rats were placed in the box 1 h in advance, moved freely to adapt to the environment, and then injected PTZ (60 mg/kg) intraperitoneally to induce convulsion in rats. The experiment was divided into toxin injection group and normal saline blank control group.\n(1) MarTX toxin injection group: after one intraperitoneal injection of PTZ to induce seizures of epilepsy, the rats were injected with MarTX toxin (dissolved in 2 μL normal saline) in the hippocampus the next day, and then the PTZ was injected again. The toxin dose was 0.08 μg, n=7-8 (n is the number of experimental rats);\n(2) Normal saline blank control group: after one intraperitoneal injection of PTZ to induce seizures of epilepsy, the rats were injected with the same amount of normal saline into the hippocampus one day later, and then PTZ was injected again, n=6.\nIn the experiment, “double-blind” dosing and animal behavioral study were used to reduce human error. Incubation period, mortality, duration and number of seizures under different severity of seizures were measured as statistical indexes. The severity of seizures in rats was rated according to the following criteria [Neurophysiol. 1972, 32, 281-294; Brain Res. 1997, 758, 92-98]: • Grade 0: no response; • Grade 1: rhythmic twitch of mouth and face; • Grade 2: wave-like migratory spasm of body; • Grade 3: systemic myoclonus and hip upturned; • Level 4: the body turned to one side; • Grade 5: inverted position, systemic rigidity spasticity seizure.\nA complete convulsive seizure was defined as the period from the onset of the seizure to the return to normal after the seizure. The interval of more than 5 s between seizures was defined as another independent seizure. Incubation period was defined as the time from PTZ injection to the beginning of the first grade 2 seizure."}, "[2]": {"test_system": "c-Fos expression in hippocampus", "experiment": "c-Fos expression in hippocampus after seizures in rats (immunohistochemistry)", "format": "in vivo, rat", "parameters": "concentration or dose not given beside the values", "method": "After the completion of the PTZ-induced epileptic status behavior experiment, the animals were anesthetized by intraperitoneal injection of sodium pentobarbital (60 mg/kg). The blood vessels were washed by perfusion of 200 mL normal saline through the ascending aorta of the left ventricle, and then perfused with 400 mL fixative solution (0.1M PBS containing […], pH7.4, 4° C.) for 1-2 h. After the brain tissue was removed and placed in the same fixative overnight, it was immersed in 20% sucrose solution until it sank to the bottom of the container, and then immersed in 30% sucrose solution until it sank to the bottom of the container.\nThe hippocampal region was secreted from the brain of the rats using a refrigerator slicer (Leica 1900, Germany) with a thickness of 20 μm. The slices were pasted on gelatin-chromium potassium sulfate treated glass slide and frozen at −20° C. for later use. C-Fos immunohistochemistry was performed as follows: • (1) The slice was taken out of the −20° C. refrigerator, reheated for 30 min, framed with a histochemical pen around the slice, and dried; • (2) The slices were immersed for 30 min for braking membrane in 1% Triton-X solution added with 1% H2O2; • (3) Rinsed 3 times with 0.01M PBS (pH7.4) buffer, 5 min for each time; • (4) Sealed with 5% Goat serum at 37° C. for 1 h; • (5) The serum was sucked dry with filter paper, rabbit anti-c-Fos antibody (1: 400, Sc-52, Santa Cruz, USA) was added, the antibody was diluted with 0.01 M PBS, 100 μL for each section, and incubated in a wet box at 4° C. for 48 h; • (6) Rinsed with 0.01 M PBS (pH 7.4) for 10 min and repeated 3 times; • (7) Biotin-labeled goat anti-rabbit IgG diluted with 0.01 M PBS (1:200) was added at room temperature for 2 h; • (8) Rinsed with 0.01 M PBS for 10 min and repeated 3 times. ABC complex (A:B:PBS=1:1:100) was added at room temperature for 2 h; • (9) Rinsed with 0.01 M PBS (pH 7.4) for 10 min and repeated 3 times; • (10) Stained in the dark by DAB-nickel sulfate amine-glucose oxidase (DAB, Sangon Biotech) for 10 min; • (11) Dehydration, 70%, 80%, 95%, 100% (×2) were used for dehydration, 5 min each time, and then soaked with xylene twice, 5 min each time; • (12) The expression of c-Fos was observed under a microscope and sealed with neutral gum.\nThe number of c-Fos-like immunoreactive (FLI) neurons in different hippocampal regions (CA1, CA3) and dentate gyrus (DG) was counted. Two groups of animals (6 animals in each group) were randomly selected from 6 to 8 sections for FLI counting in different regions (counting respectively on the same side and the other side of injected toxin or normal saline), and the average value was calculated at last. The inhibition rate of c-Fos expression was calculated according to the following formula. Inhibitory ratio=(A−B)/A×100%\nWherein, A represents the number of FLI neurons in the normal saline control group; B represents the number of FLI neurons in the MarTX toxin injection group in the corresponding region of the hippocampus."}, "[3]": {"test_system": "rat hippocampal neurons pretreated with PTZ", "experiment": "Patch clamp current record and action potential analysis", "format": "cell-based", "method": "If the resting membrane potential of the cell was −70 mV and the input resistance was 350MΩ or more, the patch clamp current was considered acceptable. The record was held at −80 mV as the holding current and induced by increasing positive current injection (for 1000 ms). The action potential differences between PTZ treated cells (measured 24 h after application) and PTZ treated epileptic cells (measured 10 min after application) treated with rMarTX were compared. The peak width was measured at half the peak amplitude of the action potential. The difference between the peak threshold value and the minimum voltage after the peak value of the action potential was used as the measurement value of the post-superpotential. Peak interval was the time between action potential peaks.\nIn the current patch clamp recording, the standard external solution was composed of 1.2 mM MgCl2, 10 mM HEPES, 10 mM glucose, 1.5 mM CaCl2, 2.5 mM KCl and 145 mM NaCl. The pH of the solution was adjusted to 7.4 with NaOH. The internal solution was composed of 1 mM CaCl2, 4 mM MgCl2, 10 mM HEPES, 11 mM EGTA, and 140 mM KCl. The pH of the solution was adjusted to 7.2 with KOH."}, "[4]": {"test_system": "hippocampus field potential", "experiment": "Field potential in hippocampus after seizure in rats", "format": "in vivo, rat", "settings": "PTZ epilepsy model, versus normal saline group, n=3", "method": "Microarray electrodes were implanted according to the sixth edition of “Rat Brain Stereotactic Atlas” (FIG. 1) edited by George Paxinos and Charles Watson to determine the position of the electrodes: AP: 4.3 mm, MR: 2.2 mm, DV: 2.5 mm, and 3-4 screws were fixed in the blank region of the skull as reference electrodes. The recording electrode and electrode base were fixed with dental cement. Field potentials (FP) were recorded after waking rats. FP signal and sync video could be recorded via omniplex (plexon, USA). According to Nesquet's sampling theory, the back end of the electrode was connected to a preamplifier and coupled to the analog-to-digital converter box. […] was taken as the sampling frequency of local field potential recording, and a […] were set for continuous recording for more than 30 minutes. The local field potential recording results were exported to *. pl2 file format, and visual preview was carried out using offline sorter v4 software. The same channel was used to analyze the local field potential, and the data were derived by MATLAB (MathWorks, USA) program. The local field potential signals of different frequencies were decomposed by wavelet transform to obtain the […] of different frequencies (δ: ˜0-4 Hz, θ: ˜4-8 Hz, α: ˜8-13 Hz, β: ˜13-30 Hz, γ: ˜30-100 Hz). […]"}, "[5]": {"test_system": "hippocampal neurons", "experiment": "Hippocampal neuron damage after seizures in rats (Nissel staining)", "format": "in vivo, rat", "settings": "versus normal saline group", "method": "(1) The slice was taken out of the −20° C. refrigerator, reheated for 20 min, framed with a histochemical pen around the slice, and dried;\n(2) The slice was soaked in distilled water for 2 min;\n(3) Nissel staining solution (purchased from Beyotime) was dropped on the brain slice, and dyed in a 37° C. water bath for 10 min;\n(4) Washed twice with distilled water for 10 s each time;\n(5) Sections were dehydrated with 70%, 80%, 95%, 100% alcohol, 2 min each time, and then soaked with xylene twice, 5 min each time;\n(6) The nissel body staining was observed under a microscope and sealed with neutral gum.\nThe above two groups of animals (6 animals in each group) were randomly selected from 6 to 8 sections to count the neuron cells in different hippocampal regions (CA1, CA3 and DG). Finally, the average value was taken and the increasing rate of the number of neurons was calculated."}, "[6]": {"settings": "0.08 μg in hippocampus, PTZ 60 mg/kg i.p., within 2 h"}, "[7]": {"settings": "MarTX relative to normal saline"}, "[8]": {"settings": "contralateral hippocampus, CA1 region"}, "[9]": {"settings": "contralateral hippocampus, CA3 region"}, "[10]": {"settings": "contralateral hippocampus, DG region"}, "[11]": {"settings": "ipsilateral hippocampus, CA1 region"}, "[12]": {"settings": "ipsilateral hippocampus, CA3 region"}, "[13]": {"settings": "ipsilateral hippocampus, DG region"}, "[14]": {"settings": "300 pA current injection, versus normal saline group, n=4"}}}
{"substance": "Martentoxin [MarTX]", "values": [{"measurement": "Duration of epilepsy", "setting": "[1]; [6]", "result": "160.00 ± 38.47", "unit": "s"}, {"measurement": "Number of deaths", "setting": "[1]; [6]", "result": "0/6"}, {"measurement": "The number of Grade 3 seizures", "setting": "[1]; [6]", "result": "0.50 ± 0.22"}, {"measurement": "The number of seizures from Grade 1 to Grade 2", "setting": "[1]; [6]", "result": "4.33 ± 1.36"}, {"measurement": "The number of seizures from Grade 4 to Grade 5", "setting": "[1]; [6]", "result": "0.50 ± 0.34"}, {"measurement": "Incubation", "setting": "[1]; 0.08 μg in hippocampus, PTZ 60 mg/kg i.p., within 2 h, time to first grade 2 seizure", "result": "427.17 ± 62.21", "unit": "s"}, {"measurement": "Decrease of the number of epileptic seizures (Grade 4 & 5)", "setting": "[1]; 0.08 μg, versus control group", "result": 77, "unit": "%"}, {"measurement": "Duration of epilepsy, relative amplitude", "setting": "[1]; [7]", "result": 40, "unit": "%"}, {"measurement": "Incubation, relative amplitude", "setting": "[1]; [7]", "result": 272, "unit": "%"}, {"measurement": "The number of Grade 3 seizures, relative amplitude", "setting": "[1]; [7]", "result": 14, "unit": "%"}, {"measurement": "The number of seizures from Grade 1 to Grade 2, relative amplitude", "setting": "[1]; [7]", "result": 42, "unit": "%"}, {"measurement": "The number of seizures from Grade 4 to Grade 5, relative amplitude", "setting": "[1]; [7]", "result": 23, "unit": "%"}, {"measurement": "Reduction of the number of Grade 3 seizures", "setting": "[1]; versus blank control group", "result": 86, "unit": "%"}, {"measurement": "Reduction of the duration of epilepsy", "setting": "[1]; versus control group", "result": "(2) MarTX toxin also significantly reduced the duration of epilepsy (duration of MarTX group: 160.00 ± 38.47 s, n = 6, *P < 0.05; control group was 400.00 ± 97.57 s, n = 6) by about 60%."}, {"measurement": "Inhibitory rate of c-Fos expression", "setting": "[2]; [8]", "result": 54.01, "unit": "%"}, {"measurement": "Inhibitory rate of c-Fos expression", "setting": "[2]; [9]", "result": 55.25, "unit": "%"}, {"measurement": "Inhibitory rate of c-Fos expression", "setting": "[2]; [10]", "result": 78.53, "unit": "%"}, {"measurement": "Inhibitory rate of c-Fos expression", "setting": "[2]; [11]", "result": 60.71, "unit": "%"}, {"measurement": "Inhibitory rate of c-Fos expression", "setting": "[2]; [12]", "result": 51.18, "unit": "%"}, {"measurement": "Inhibitory rate of c-Fos expression", "setting": "[2]; [13]", "result": 84.98, "unit": "%"}, {"measurement": "Discharge rate (number of action potentials)", "setting": "[3]; 100, 200 and 300 pA current injection, versus normal saline group, n=4", "result": "significant decrease"}, {"measurement": "Action potential peak interval", "setting": "[3]; 300 pA current injection, versus PTZ pretreated cells (normal saline group), n=4", "result": "significantly longer"}, {"measurement": "Action potential width", "setting": "[3]; [14]", "result": "greater"}, {"measurement": "Amplitude of the post-hypertrophy potential", "setting": "[3]; [14]", "result": "significantly increased"}, {"measurement": "Action potential failure", "setting": "[3]; higher current injection (300 pA), versus normal saline group", "result": "more action potential failure"}, {"measurement": "Power spectrum density of brain δ, θ, α, β and γ waves", "setting": "[4]", "result": "significantly lower"}, {"measurement": "Neuronal increase rate", "setting": "[5]; [8]", "result": 79.50, "unit": "%"}, {"measurement": "Neuronal increase rate", "setting": "[5]; [9]", "result": 94.82, "unit": "%"}, {"measurement": "Neuronal increase rate", "setting": "[5]; [10]", "result": 79.62, "unit": "%"}, {"measurement": "Neuronal increase rate", "setting": "[5]; [11]", "result": 95.73, "unit": "%"}, {"measurement": "Neuronal increase rate", "setting": "[5]; [12]", "result": 102.02, "unit": "%"}, {"measurement": "Neuronal increase rate", "setting": "[5]; [13]", "result": 93.43, "unit": "%"}]}
